Assay [1] concerns the target T1, Recombinant STAT3 protein (STAT3(G127-I722)) (Homo sapiens, UniProt P40763).
T1 construct: Recombinant STAT3 protein (STAT3(G127-I722))
The experiment in a line: STAT3 Fluorescence Polarization (FP) Assay. The following applies: STAT3(G127-I722) 25 nM, probe 5-FAM-GpYLPQTV-NH2 2 nM, 45-minute incubation. Format: binding. In outline: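 STAT3(G127-I722), 25 nM, was mixed with 2 nM 5-FAM-GpYLPQTV-NH2 probe in HEPES pH 7.4 buffer with 1% DMSO and serially diluted compound. FP (mP) was read after 45 min at room temperature. IC50 came from nonlinear regression.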

The target of assay [2] is T2, Recombinant STAT6 protein (STAT6(W123-T658)) (Homo sapiens, UniProt P42226).
T2 construct: Recombinant STAT6 protein (STAT6(W123-T658))
T2 sequence (P42226 123-658): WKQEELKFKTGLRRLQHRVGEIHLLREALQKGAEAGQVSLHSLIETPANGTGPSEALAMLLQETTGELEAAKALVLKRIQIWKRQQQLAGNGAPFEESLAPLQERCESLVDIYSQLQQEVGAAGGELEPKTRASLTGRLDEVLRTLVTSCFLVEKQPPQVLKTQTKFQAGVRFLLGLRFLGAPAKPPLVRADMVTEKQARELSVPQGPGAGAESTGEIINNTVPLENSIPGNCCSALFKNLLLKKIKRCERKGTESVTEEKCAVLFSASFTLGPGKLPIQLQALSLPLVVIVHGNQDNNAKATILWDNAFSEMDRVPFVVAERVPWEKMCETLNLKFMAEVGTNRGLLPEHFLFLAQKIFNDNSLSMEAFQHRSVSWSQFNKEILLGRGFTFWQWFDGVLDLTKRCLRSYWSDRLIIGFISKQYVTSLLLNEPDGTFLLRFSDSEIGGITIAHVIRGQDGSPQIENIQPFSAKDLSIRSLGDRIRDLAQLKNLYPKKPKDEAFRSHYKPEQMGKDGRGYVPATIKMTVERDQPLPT
Put plainly: STAT6 Fluorescence Polarization (FP) Assay. Format: binding. The following applies: STAT6(W123-T658) 250 nM, probe 5-FAM-ApYKPFQDLI-NH2 2 nM, 45-minute incubation. The procedure, abridged:
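Displacement of a fluorescent phosphotyrosine peptide (5-FAM-ApYKPFQDLI-NH2, 2 nM) from STAT6(W123-T658) (250 nM), 1% DMSO, pH 7.4 HEPES buffer. After 45 min at room temperature, polarization (mP) was plotted versus log compound concentration and fitted by nonlinear regression to give IC50.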
Background: In fluorescence polarisation assays a small probe gives low polarisation when free and higher when bound to something large.

T1 sequence (P40763 127-722): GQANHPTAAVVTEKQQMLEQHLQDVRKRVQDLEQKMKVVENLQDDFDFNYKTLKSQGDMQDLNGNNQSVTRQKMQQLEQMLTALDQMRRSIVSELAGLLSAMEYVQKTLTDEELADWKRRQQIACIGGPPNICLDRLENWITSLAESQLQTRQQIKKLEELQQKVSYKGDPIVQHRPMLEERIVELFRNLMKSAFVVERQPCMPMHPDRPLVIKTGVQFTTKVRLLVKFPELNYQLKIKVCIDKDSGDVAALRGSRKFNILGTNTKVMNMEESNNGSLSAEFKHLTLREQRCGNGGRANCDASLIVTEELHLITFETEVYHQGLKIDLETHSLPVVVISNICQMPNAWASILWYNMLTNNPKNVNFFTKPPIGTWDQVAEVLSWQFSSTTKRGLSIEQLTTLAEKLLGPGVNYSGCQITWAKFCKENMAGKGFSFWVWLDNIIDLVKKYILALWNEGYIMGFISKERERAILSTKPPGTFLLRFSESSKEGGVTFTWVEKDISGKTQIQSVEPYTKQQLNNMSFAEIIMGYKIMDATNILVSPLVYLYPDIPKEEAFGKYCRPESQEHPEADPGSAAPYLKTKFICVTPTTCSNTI

As for `CC(=O)N1CC[C@H]2CC[C@@H](C(=O)N3C[C@H](c4cc[nH]c(=O)c4)[C@@H](C#N)C3)N2C(=O)[C@@H](NC(=O)c2ccc3ccc(C(F)(F)P(=O)(O)O)cc3c2)C1` (single isomer, unassigned) [Compound 38, ((7-(((5S,8S,10aR)-3-acetyl-8-((3R,4S or 3S,4R)-3-cyano-4-(2-oxo-1,2-dihydropyridin-4-yl)pyrrolidine-1-carbonyl)-6-oxodecahydropyrrolo[1,2-a][1,5]diazocin-5-yl)carbamoyl)naphthalen-2-yl)difluoromethyl)phosphonic acid], the IC50 in assay [1] was 1000 to 10000 nM; in assay [2], at most 300 nM.
For `CCN1CC[C@H]2CC[C@@H](C(=O)N3C[C@@H](C#N)[C@H](c4ccccc4)C3)N2C(=O)[C@@H](NC(=O)c2cc3cc(C(F)(F)P(=O)(O)O)ccc3s2)C1` (single isomer, unassigned) [Compound 222, ((2-(((5S,8S,10aR)-8-((3S,4R or 3R,4S)-3-cyano-4-phenylpyrrolidine-1-carbonyl)-3-ethyl-6-oxodecahydropyrrolo[1,2-a][1,5]diazocin-5-yl)carbamoyl)benzo[b]thiophen-5-yl)difluoromethyl)phosphonic acid], the IC50 in assay [1] was 1000 to 10000 nM; in assay [2], 300 to 3000 nM.
For `CC(=O)N1CC[C@H]2CC[C@@H](C(=O)N3CC(c4cccc(C#N)c4)C3)N2C(=O)[C@@H](NC(=O)c2cc3cc(C(F)(F)P(=O)(O)O)ccc3s2)C1` [Compound 208, ((2-(((5S,8S,10aR)-3-acetyl-8-(3-(3-cyanophenyl)azetidine-1-carbonyl)-6-oxodecahydropyrrolo[1,2-a][1,5]diazocin-5-yl)carbamoyl)benzo[b]thiophen-5-yl)difluoromethyl)phosphonic acid], the results for the IC50 in assay [1] and in assay [2] were at most 100 nM and 300 to 3000 nM, respectively.
Take `CC(=O)N1CC[C@H]2CC[C@@H](C(=O)Nc3ccc(-c4ccccc4)cc3)N2C(=O)[C@@H](NC(=O)c2cc3c(F)c(C(F)(F)P(=O)(O)O)ccc3s2)C1` [Compound 48, ((2-(((5S,8S,10aR)-8-([1,1′-biphenyl]-4-ylcarbamoyl)-3-acetyl-6-oxodecahydropyrrolo[1,2-a][1,5]diazocin-5-yl)carbamoyl)-4-fluorobeno[b]thiophen-5-yl)difluoromethyl)phosphonic acid]: the values for the IC50 in assay [1] and in assay [2] were 100 to 1000 nM and 300 to 3000 nM, respectively.
As to `CN(C)C(=O)[C@@H]1CC[C@@H]2CCN(Cc3ccccc3)C[C@H](NC(=O)c3cc4cc(C(F)(F)P(=O)(O)O)ccc4[nH]3)C(=O)N21` [Compound 225, ((2-(((5S,8S,10aR)-3-benzyl-8-(dimethylcarbamoyl)-6-oxodecahydropyrrolo[1,2-a][1,5]diazocin-5-yl)carbamoyl)-1H-indol-5-yl)difluoromethyl)phosphonic acid], the IC50 in assay [1] fell in the range of 1000 to 10000 nM; in assay [2], 3000 to 30000 nM.
For `CO[C@H]1CN(C(C)=O)C[C@@H]1NC(=O)[C@@H]1CC[C@@H]2CCN(C(C)=O)C[C@H](NC(=O)c3cc4cc(C(F)(F)P(=O)(O)O)ccc4s3)C(=O)N21` [Compound 184, ((2-(((5S,8S,10aR)-3-acetyl-8-(((3S,4S)-1-acetyl-4-methoxypyrrolidin-3-yl)carbamoyl)-6-oxodecahydropyrrolo[1,2-a][1,5]diazocin-5-yl)carbamoyl)benzo[b]thiophen-5-yl)difluoromethyl)phosphonic acid], the figures for the IC50 in assay [1] and in assay [2] were 100 to 1000 nM and 300 to 3000 nM, respectively.
Consider `CC(=O)N1CC[C@H]2CC[C@@H](C(=O)N3CCC(C(N)=O)c4cc(-c5ccccc5)ccc43)N2C(=O)[C@@H](NC(=O)c2cc3cc(C(F)(F)P(=O)(O)O)ccc3s2)C1` (stereo partly drawn) [Compound 116, ((2-(((5S,8S,10aR)-3-acetyl-8-(4-carbamoyl-6-phenyl-1,2,3,4-tetrahydroquinoline-1-carbonyl)-6-oxodecahydropyrrolo[1,2-a][1,5]diazocin-5-yl)carbamoyl)benzo[b]thiophen-5-yl)difluoromethyl)phosphonic acid], for which the results for the concentration for half-maximal inhibition (IC50) in assay [1] and in assay [2] were 100 to 1000 nM and 300 to 3000 nM, respectively.
For `CC(=O)N1CC[C@H]2CC[C@@H](C(=O)Nc3cc(C)c4[nH]ncc4c3)N2C(=O)[C@@H](NC(=O)c2cc3cc(C(F)(F)P(=O)(O)O)ccc3s2)C1` [Compound 67, ((2-(((5S,8S,10aR)-3-acetyl-8-((7-methyl-1H-indazol-5-yl)carbamoyl)-6-oxodecahydropyrrolo[1,2-a][1,5]diazocin-5-yl)carbamoyl)benzo[b]thiophen-5-yl)difluoromethyl)phosphonic acid], the IC50 in assay [1] fell in the range of 1000 to 10000 nM; in assay [2], 300 to 3000 nM.
`CC(=O)N1CC[C@H]2CC[C@@H](C(=O)N3CCN(C(=O)OCc4ccccc4)CC3)N2C(=O)[C@@H](NC(=O)c2cc3cc(C(F)(F)P(=O)(O)O)ccc3[nH]2)C1` [Compound 35, ((2-(((5S,8S,10aR)-3-acetyl-8-(4-((benzyloxy)carbonyl)piperazine-1-carbonyl)-6-oxodecahydropyrrolo[1,2-a][1,5]diazocin-5-yl)carbamoyl)-1H-indol-5-yl)difluoromethyl)phosphonic acid]: the values for the IC50 in assay [1] and in assay [2] were 1000 to 10000 nM and 300 to 3000 nM, respectively.
On the same counts, the results for `O=C(N[C@H]1CN(C(=O)c2cc3ncccn3n2)CC[C@H]2CC[C@@H](C(=O)N3CCOCC3)N2C1=O)c1ccc2ccc(C(F)P(=O)(O)O)cc2c1` (stereo partly drawn) [Compound 359, (fluoro(7-(((5S,8S,10aR)-8-(morpholine-4-carbonyl)-6-oxo-3-(pyrazolo[1,5-a]pyrimidine-2-carbonyl)decahydropyrrolo[1,2-a] [1,5]diazocin-5-yl)carbamoyl)naphthalen-2-yl)methyl)phosphonic acid] are above 10000 nM and 300 to 3000 nM.
Regarding `CC(=O)N1CC[C@H]2CC[C@@H](C(=O)N3CCC(Oc4ccncc4)C3)N2C(=O)[C@@H](NC(=O)c2cc3cc(C(F)(F)P(=O)(O)O)ccc3s2)C1` (stereo partly drawn) [Compound 95, ((1-(((5S,8S,10aR)-3-acetyl-6-oxo-8-(3-(pyridin-4-yloxy)pyrrolidine-1-carbonyl)decahydropyrrolo[1,2-a][1,5]diazocin-5-yl)carbamoyl)benzo[b]thiophen-5-yl)difluoromethyl)phosphonic acid], the values for the IC50 in assay [1] and in assay [2] were 100 to 1000 nM and 300 to 3000 nM, respectively.
With `CN(C(=O)[C@@H]1CC[C@@H]2CCN(CC(F)F)C[C@H](NC(=O)c3ccc4ccc(C(F)(F)P(=O)(O)O)cc4c3)C(=O)N21)C1CCN(S(C)(=O)=O)CC1` [Compound 244, ((7-(((5S,8S,10aR)-3-(2,2-difluoroethyl)-8-(methyl(1-(methylsulfonyl)piperidin-4-yl)carbamoyl)-6-oxodecahydropyrrolo[1,2-a][1,5]diazocin-5-yl)carbamoyl)naphthalen-2-yl)difluoromethyl)phosphonic acid], the IC50 is 1000 to 10000 nM in assay [1] and 300 to 3000 nM in assay [2].
The corresponding values for `C[C@H](C(=O)N1CC[C@H]2CC[C@@H](C(=O)Nc3ccc(-c4ccccc4)cc3)N2C(=O)[C@@H](NC(=O)c2cc3cc(C(F)(F)P(=O)(O)O)ccc3[nH]2)C1)c1ccccc1` [Compound 255, ((2-(((5S,8S,10aR)-8-([1,1′-biphenyl]-4-ylcarbamoyl)-6-oxo-3-((S)-2-phenylpropanoyl)decahydropyrrolo[1,2-a][1,5]diazocin-5-yl)carbamoyl)-1H-indol-5-yl)difluoromethyl)phosphonic acid] are 100 to 1000 nM and 300 to 3000 nM.
In the case of `CC(=O)N1CC[C@H]2CC[C@@H](C(=O)Nc3ccc(-c4ccccc4)c([N+](=O)[O-])c3)N2C(=O)[C@@H](NC(=O)c2cc3cc(C(F)(F)P(=O)(O)O)ccc3s2)C1` [Compound 179, ((2-(((5S,8S,10aR)-3-acetyl-8-((2-nitro-[1,1′-biphenyl]-4-yl)carbamoyl)-6-oxodecahydropyrrolo[1,2-a][1,5]diazocin-5-yl)carbamoyl)benzo[b]thiophen-5-yl)difluoromethyl)phosphonic acid], the IC50 fell in the range of 100 to 1000 nM in assay [1] and 300 to 3000 nM in assay [2].
On the same counts, the results for `CC(C)CN1CC[C@H]2CC[C@@H](C(=O)N3C[C@@H](C#N)[C@H](c4ccccc4)C3)N2C(=O)[C@@H](NC(=O)c2cc3cc(C(F)(F)P(=O)(O)O)ccc3s2)C1` (relative stereo) [Compound 279, ((2-(((5S,8S,10aR)-8-((rel-trans)-3-cyano-4-phenylpyrrolidine-1-carbonyl)-3-isobutyl-6-oxodecahydropyrrolo[1,2-a][1,5]diazocin-5-yl)carbamoyl)benzo[b]thiophen-5-yl)difluoromethyl)phosphonic acid] are 100 to 1000 nM and at most 300 nM.

As usually defined, the IC50 is the concentration at which inhibition is half-maximal.

Source of the values: patent US20250179103A1, “6-OXODECAHYDROPYRROLO[1,2-A][1,5]DIAZOCINE AND 6-OXODECAHYDRO-4H-PYRROLO[2,1-D][1,5]THIAZOCINE DERIVATIVES AS STAT3 AND STAT6 MODULATORS FOR THE TREATMENT OF CANCER AND INFLAMMATORY CONDITIONS” (Recludix Pharma, Inc., priority 2022, published 2025).
